Patent US5747006A, “Skin whitener composition containing acerola cherry fermentate” (Amway Corporation, priority 1997, dated 1998)

Test system: tyrosinase from mushroom
Assay: Inhibition of tyrosinase, absorbancy at 475 nm with tyrosine substrate
Assay type: biochemical
Settings: for percent inhibition of the tyrosinase: pH 6.8 sodium acetate buffer, Example 1
Method: A buffer solution A containing 50 mM sodium acetate was prepared to yield a 6.8 pH.
A test tube was charged with 2.7 ml of buffer solution A and 0.4 ml. water to define a blank. Similarly, another test tube was charged with 2.7 ml. of the tyrosine solution, 0.3 ml of water, and 0.1 ml of the tyrosinase solution to define a reference. The absorbency of the reference was measured at 475 nm over a period of time with a spectrophotometer and the absorbancy was set to zero.
A test tube was charged with 2.7 ml of the tyrosine solution, 0.1 ml. of the tyrosinase solution and 0.02% of mercaptosuccinic acid together with 0.5% acerola cherry fermentate.

Percent Inhibition (0.5 hours) (0.5 hours, Table 1)	Percent Inhibition (24 hours) (24 hours, Table 1)	percent inhibition of the tyrosinase (0.5 hours) [%]	percent inhibition of the tyrosinase (24 hours) [%]	Compound
91	92	–	–	O=c1cc(CO)occ1O [Comparative Example 2, kojic acid]
–	–	95	77	O=C(O)CC(S)C(=O)O (stereo not shown) [compound 1, mercaptosuccinic acid]
